Results from patent publication US11760744B2, “Fused ring compounds” (Genentech, Inc., priority 2018, dated 2023).

What was measured:
K-Ras G12C [1] = molecular target: T1, K-Ras G12C (Homo sapiens, UniProt P01116, G12C); assay: Western blot assay for in cell alkylation of K-Ras G12C (HCC1171 cells); format: cell-based; set-up: endogenous in cells; host or cells: HCC1171; conditions: 18 hours at 37° C., 7 point dose response
Description: Western Blot Assay for in Cell Alkylation of K-Ras G12C
HCC1171 cells were maintained in RPMI1640 supplemented with 10% FBS. Cells were plated in a 96-well plate at 20,000 cells/well and the following day compounds were added to the cells. After 18 hours at 37° C., cells were lysed in RIPA buffer (Sigma R0278) with 0.5% SDS and protease/phosphatase inhibitor cocktail. After through mixing to enable complete lysis, the lysates were cleared by centrifugation before 20 μl was transferred from each well and combined with loading buffer and reducing agent. After heating for 10 minutes at 95° C., 15 μl of each sample was loaded onto a 4-20% Tris-Glycine gel and electrophoresed at 110V for 165 minutes in SDS-PAGE running buffer. Gels were transferred to a nitrocellulose membrane, blocked for 1 hour and stained overnight at 4° C. with primary antibody against K-Ras (polyclonal Proteintech 12063-1-AP). The membrane was then washed thoroughly and counterstained with anti-rabbit IRDye 800CW (LI-COR 926-32211) for one hour at room temperature. After final washes, the membrane was imaged on a LI-COR Odyssey CLx at medium resolution. Alkylated K-Ras was visible by an electrophoretic shift from unmodified K-Ras. To quantify this affect, the LICOR software was used to draw a rectangle over alkylated and unalkylated bands for each well and measured the total fluorescent intensity (FI) in each of these bands. The following formula was then used to calculate % alkylation: FI(alkylated)/(FI(alkylated)+FI(unalkylated))*100 for each well.
A 7 point dose response curve was used to determine the IC50 for each compound. Cell alkylation data are presented below in Table 2.
Target sequence in this assay (P01116 1-188 isoform P01116-2 G12C): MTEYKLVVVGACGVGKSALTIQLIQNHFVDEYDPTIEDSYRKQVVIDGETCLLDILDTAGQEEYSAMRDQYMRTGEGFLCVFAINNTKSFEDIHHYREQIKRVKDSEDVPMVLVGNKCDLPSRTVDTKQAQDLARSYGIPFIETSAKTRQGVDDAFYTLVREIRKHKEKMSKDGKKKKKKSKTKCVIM

K-Ras G12C [2] = molecular target: T1, K-Ras G12C; assay: K-Ras G12C, SOS1, Raf RBD HTRF assay for inhibition of GTP exchange; format: biochemical; set-up: K-Ras G12C (residues 2-188) and SOS1 (residues 564-1049) had N-terminal 6-His; made in house; host or cells: E. coli; conditions: 18 hours preincubation with K-Ras G12C at room temperature; SOS1-mediated GTP exchange
Description: K-Ras G12C, SOS1, Raf RBD Homogeneous Time Resolved Fluorescence (HTRF) Assay for Inhibition of GTP Exchange
After 18 hours at room temperature, the SOS1 GTP exchange factor (1.67 nM during exchange, 1.25 nM final) was added to initiate nucleotide exchange to GTP (200 μM during exchange, 150 μM final). The level of GTP exchange was assessed by addition of a Ras binding domain derived from C-Raf and the HTRF detection antibodies Tb-anti-FLAG and D2-anti-his (Cis-Bio) at 50 nM, 1 nM and 12.5 nM, respectively. After 2 hours, the ratio of 665 nm to 615 nm emission with 320 nm excitation was measured on an Envision plate reader (Perkin Elmer).
The final reaction volume was 20 μl in a ProxiPlate-384F Plus (Perkin Elmer), in buffer containing 20 mM HEPES, 150 mM NaCl, 1 mM MgCl2, 0.1% BSA, 0.03% Tween-20 and 1 mM DTT. […] HTRF data are presented below in Table 2.
Target sequence in this assay (P01116 2-188 isoform P01116-2 G12C): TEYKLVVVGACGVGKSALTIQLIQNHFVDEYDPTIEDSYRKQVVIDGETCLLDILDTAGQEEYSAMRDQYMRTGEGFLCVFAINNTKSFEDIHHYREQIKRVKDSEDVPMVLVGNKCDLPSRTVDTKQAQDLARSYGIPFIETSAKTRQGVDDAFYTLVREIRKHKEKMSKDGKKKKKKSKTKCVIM

Compound	EC50 (K-Ras G12C [1]) [nM]	IC50 (K-Ras G12C [2]) [nM]
COc1ccc(CN(Cc2ccc(OC)cc2)c2cc(C)c(I)c([C@@H]3Cc4nc(OC[C@@H]5CCCN5C)nc(N5CCN(C(=O)OC(C)(C)C)C[C@@H]5C)c4C[C@H]3C)c2F)cc1 (single isomer, unassigned) [Example 14a]	1000	> 50000
COc1ccc(CN(Cc2ccc(OC)cc2)c2cc(C)c(I)c([C@H]3Cc4nc(OC[C@@H]5CCCN5C)nc(N5CCN(C(=O)OC(C)(C)C)C[C@@H]5C)c4C[C@@H]3C)c2F)cc1 (single isomer, unassigned) [Example 14b]	1000	> 50000
C=CC(=O)N1CCN(c2ncnc3c2C[C@@H](C)[C@H](c2c(C)ccc4[nH]ncc24)C3)CC1 (single isomer, unassigned) [Example 15a]	430	68
C=CC(=O)N1CCN(c2ncnc3c2C[C@H](C)[C@@H](c2c(C)ccc4[nH]ncc24)C3)CC1 (single isomer, unassigned) [Example 15b]	30000	8600
CNC/C=C/C(=O)N1CCN(c2ncnc3c2C[C@@H](C)[C@H](c2c(C)ccc4[nH]ncc24)C3)CC1 (single isomer, unassigned) [Example 19a]	12000	930
C=CC(=O)N1CCN(c2nc(OC[C@@H]3CCCN3C)nc3c2C[C@H](C)[C@@H](c2nc(N)cc(C)c2C(F)(F)F)C3)CC1 (single isomer, unassigned) [Example 20b]	2100	1400
C=CC(=O)N1CCN(c2nc(OC[C@@H]3CCCN3C)nc3c2C[C@H](C)[C@@H](c2nc(N)cc(C)c2C(F)(F)F)C3)[C@@H](C)C1 (single isomer, unassigned) [Example 21a]	2300	1100
C=CC(=O)N1CCN(c2nc(OC[C@@H]3CCCN3C)nc3c2C[C@H](C)[C@@H](c2cc(O)cc4ccccc24)C3)[C@@H](C)C1 (single isomer, unassigned) [Example 22a]	100	20
C=CC(=O)N1CCN(c2nc(OC[C@@H]3CCCN3C)nc3c2C[C@H](C)[C@@H](c2c(C(F)(F)F)ccc(N)c2F)C3)[C@@H](C)C1 (single isomer, unassigned) [Example 23a]	1000	720
C=CC(=O)N1CCN(c2nc(OC[C@@H]3C[C@@H](F)CN3C)nc3c2C[C@@H](C)[C@H](c2nc(N)cc(C)c2C2CC2)C3)[C@@H](C)C1 (single isomer, unassigned) [Example 24b]	490	21
C=CC(=O)N1CCN(c2ncnc3c2CC[C@H](c2c(F)c(N)cc(C)c2C(F)(F)F)C3)CC1 (single isomer, unassigned) [Example 27a]	340	89
C=CC(=O)N1CCN(c2nc(OC[C@@H]3CCCN3C)nc3c2CC[C@@H](c2cc(O)cc4ccccc24)C3)[C@@H](C)C1 (single isomer, unassigned) [Example 28a]	1000	130
C=CC(=O)N1CCN(c2nc(OC[C@@H]3CCCN3C)nc3c2CCC(c2cc(O)cc4ccccc24)C3)[C@@H](CO)C1 (single isomer, unassigned) [Example 29a]	9300	530
C=CC(=O)N1CCN(c2nc(OC[C@@H]3CCCN3C)nc3c2CCC(c2cc(O)cc4ccccc24)C3)[C@@H](CO)C1 (single isomer, unassigned) [Example 29b]	330	< 10
C=CC(=O)N1CCN(c2nc(OC[C@@H]3C[C@H](F)CN3C)nc3c2CC[C@H](c2cc(O)cc4ccccc24)C3)[C@@H](C)C1 (single isomer, unassigned) [Example 30a]	40	11
C=CC(=O)N1CCN(c2nc(OC[C@@H]3C[C@@H](F)CN3C)nc3c2CC[C@@H](c2cc(O)cc4ccccc24)C3)[C@@H](C)C1 (single isomer, unassigned) [Example 31b]	2000	250

Compound	EC50 (K-Ras G12C [1]) [nM]	IC50 (K-Ras G12C [2]) [nM]
C=CC(=O)N1C[C@H](C)N(c2nc(OC[C@@H]3CCCN3C)nc3c2C[C@@H](C)[C@H](c2cc(O)cc4ccccc24)C3)[C@@H](C)C1 (single isomer, unassigned) [Example 32a]	120	< 10
C=CC(=O)N1C[C@H](C)N(c2nc(OC[C@@H]3CCCN3C)nc3c2C[C@H](C)[C@@H](c2cc(O)cc4ccccc24)C3)[C@@H](C)C1 (single isomer, unassigned) [Example 32b]	920	56
C=CC(=O)N1CCN(c2nc(OC[C@@H]3CCCN3C)nc3c2C[C@@H](C(C)C)[C@H](c2nc(N)cc(C)c2C(F)(F)F)C3)[C@@H](C)C1 (single isomer, unassigned) [Example 33a]	51	< 10
C=CC(=O)N1CCN(c2nc(OC[C@@H]3CCCN3C)nc3c2C[C@H](C(C)C)[C@@H](c2nc(N)cc(C)c2C(F)(F)F)C3)[C@@H](C)C1 (single isomer, unassigned) [Example 33b]	2200	300
C=C(F)C(=O)N1CCN(c2nc(OC[C@@H]3CCCN3C)nc3c2CC(C)C(c2c(F)c(N)cc(C)c2C(F)(F)F)C3)CC1CC#N (single isomer, unassigned) [Example 34a]	> 3000	8900
C=C(F)C(=O)N1CCN(c2nc(OC[C@@H]3CCCN3C)nc3c2C[C@H](C)[C@@H](c2c(F)c(N)cc(C)c2C(F)(F)F)C3)C[C@H]1CC#N (single isomer, unassigned) [Example 34b]	1200	680
C=CC(=O)N1CCN(c2nc(OC[C@@H]3CCCN3C)nc3c2C[C@H](C)[C@@H](c2cccc4c2CCC4)C3)C[C@H]1CC#N (single isomer, unassigned) [Example 35a]	550	190
C=CC(=O)N1CCN(c2nc(OC[C@@H]3CCCN3C)nc3c2C[C@H](C)[C@@H](c2cccc4c2CCC4)C3)C[C@@H]1CC#N (single isomer, unassigned) [Example 35c]	46	22
C=CC(=O)N1CCN(c2nc(OC[C@@H]3C[C@@H](F)CN3C)nc3c2C[C@H](C)[C@@H](c2c(F)c(N)cc(C)c2C(F)(F)F)C3)[C@@H](C)C1 (single isomer, unassigned) [Example 36a]	270	360
C=CC(=O)N1CCN(c2nc(OC[C@@H]3C[C@@H](F)CN3C)nc3c2C[C@H](CC)[C@@H](c2c(F)c(N)cc(C)c2C(F)(F)F)C3)[C@@H](C)C1 (single isomer, unassigned) [Example 37b]	1000	2200
C=C(F)C(=O)N1CCN(c2nc(OC[C@@H]3C[C@@H](F)CN3C)nc3c2C[C@H](C)[C@@H](c2c(F)c(N)cc(C)c2C(F)(F)F)C3)C[C@H]1CC#N (single isomer, unassigned) [Example 38a]	1000	3600
C=C(F)C(=O)N1CCN(c2nc(OC[C@@H]3C[C@@H](F)CN3C)nc3c2C[C@H](C)[C@@H](c2c(F)c(N)cc(C)c2C(F)(F)F)C3)C[C@@H]1CC#N (single isomer, unassigned) [Example 38d]	1000	1700
C#CC[C@H]1CN(c2nc(OC[C@@H]3CCCN3C)nc3c2C[C@@H](C)[C@H](c2cccc4c2CCC4)C3)CCN1C(=O)C=C (single isomer, unassigned) [Example 40a]	100	< 10
C#CC[C@H]1CN(c2nc(OC[C@@H]3CCCN3C)nc3c2C[C@H](C)[C@@H](c2cccc4c2CCC4)C3)CCN1C(=O)C=C (single isomer, unassigned) [Example 40b]	1000	560
C#CC[C@@H]1CN(c2nc(OC[C@@H]3CCCN3C)nc3c2C[C@H](C)[C@@H](c2cccc4c2CCC4)C3)CCN1C(=O)C=C (single isomer, unassigned) [Example 40c]	1000	1200
C#CC[C@@H]1CN(c2nc(OC[C@@H]3CCCN3C)nc3c2C[C@@H](C)[C@H](c2cccc4c2CCC4)C3)CCN1C(=O)C=C (single isomer, unassigned) [Example 40d]	1000	29
